This passage reports IC50 results from ChEMBL document CHEMBL3639325, “Fused tricyclic dual inhibitors of CDK 4/6 and FLT3” (2014).

In test [1] the target is Cyclin-dependent kinase 4 (Homo sapiens, UniProt P11802). Description: Kinase Assay: The CDK4 and CDK1 inhibitory activity of the CDK4/6-FLT3 inhibitors was determined with a filtration kinase assay. The compounds, kinase and substrate diluted in the kinase buffer (20 mM Tris, pH7.4, 50 mM NaCl, 1 mM DTT, 0.1% BSA) were sequentially added to a 96-well Multiscreen HTS filtration plate (Millipore). The final 100 μL reaction mixture in each well contained 0.3 μg of CDK4/Cyclin D1 or CDK1/Cyclin B (Cell Signaling Technology), 1 μg of Rb fragment (aa773-928, Millipore) for the CDK4 assay or 5 μg of histone H1 for the CDK1 assay and 1 μCi of [33P]-ATP. The mixture was incubated at room temperature for 1 hour. The proteins in the reaction were then precipitated and washed with cold TCA solution using an aspiration/filtration vacuum system. The plates were dried at room temperature, and the retained radioactivity was measured by scintillation counting.

The target in test [2] is T1, Receptor-type tyrosine-protein kinase FLT3 (Homo sapiens, UniProt P36888).
T1 sequence (P36888 whole entry): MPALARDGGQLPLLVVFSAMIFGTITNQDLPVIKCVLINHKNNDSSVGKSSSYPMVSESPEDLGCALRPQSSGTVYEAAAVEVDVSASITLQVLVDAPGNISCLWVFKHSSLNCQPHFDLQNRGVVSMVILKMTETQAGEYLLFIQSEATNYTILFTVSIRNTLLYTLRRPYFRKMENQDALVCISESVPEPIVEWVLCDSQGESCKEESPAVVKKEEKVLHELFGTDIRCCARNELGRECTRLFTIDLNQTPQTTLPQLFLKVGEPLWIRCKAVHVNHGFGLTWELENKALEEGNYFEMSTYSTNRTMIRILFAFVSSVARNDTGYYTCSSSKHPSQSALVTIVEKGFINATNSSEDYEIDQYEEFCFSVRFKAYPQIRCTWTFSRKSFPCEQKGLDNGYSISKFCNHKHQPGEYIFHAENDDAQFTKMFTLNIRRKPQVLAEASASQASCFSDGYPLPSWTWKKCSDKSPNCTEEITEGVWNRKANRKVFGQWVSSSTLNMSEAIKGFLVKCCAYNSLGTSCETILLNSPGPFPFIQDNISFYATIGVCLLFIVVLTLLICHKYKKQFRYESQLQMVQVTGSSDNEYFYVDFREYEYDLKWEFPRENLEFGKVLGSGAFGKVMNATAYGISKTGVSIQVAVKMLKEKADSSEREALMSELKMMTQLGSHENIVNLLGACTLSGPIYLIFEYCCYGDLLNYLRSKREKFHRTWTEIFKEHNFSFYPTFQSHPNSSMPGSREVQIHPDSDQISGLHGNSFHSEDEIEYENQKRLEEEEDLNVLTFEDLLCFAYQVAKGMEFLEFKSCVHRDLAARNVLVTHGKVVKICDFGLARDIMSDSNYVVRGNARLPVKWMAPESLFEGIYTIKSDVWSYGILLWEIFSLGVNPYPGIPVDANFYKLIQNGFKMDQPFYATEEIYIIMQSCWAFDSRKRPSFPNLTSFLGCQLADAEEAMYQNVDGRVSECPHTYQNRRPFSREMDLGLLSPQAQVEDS
The experiment in a line: Kinase Assay: The FLT3 inhibitory activity of the CDK4/6-FLT3 inhibitors was determined with a HTRF kinase assay. The FLT3 enzyme (GST-FLT3 fusion) was purchased from Carna Biosciences. An ULight-labeled synthetic peptide derived from human Janus kinase 1 (aa1015-1027, ULight-JAK1, PerkinElmer) was utilized as the phosphoacceptor substrate. The assay was conducted in a 384-well white OptiPlate (PerkinElmer). The 20 μL reaction mixture contained 50 nM ULight-JAK1, 116 μM ATP, 0.0385 ng/μL FLT3 and dilutions of test compounds in the kinase buffer (50 mM Hepes, pH 7.6, 1 mM EGTA, 10 mM MgCl2, 2 mM DTT, and 0.005% Tween 20). The reaction was allowed to proceed for 1 hour at room temperature and was stopped by adding 20 μL of 10 mM EDTA, 2 nM LANCE Eu-W1024 anti-phospho-tyrosine antibody in LANCE detection buffer (PerkinElmer). The plates were incubated at room temperature for 2 hours after addition of detection reagents and then read on an Envision multimode reader (PerkinElmer).

Sequence of Cyclin-dependent kinase 4 (P11802 whole entry, the tested form may be a part): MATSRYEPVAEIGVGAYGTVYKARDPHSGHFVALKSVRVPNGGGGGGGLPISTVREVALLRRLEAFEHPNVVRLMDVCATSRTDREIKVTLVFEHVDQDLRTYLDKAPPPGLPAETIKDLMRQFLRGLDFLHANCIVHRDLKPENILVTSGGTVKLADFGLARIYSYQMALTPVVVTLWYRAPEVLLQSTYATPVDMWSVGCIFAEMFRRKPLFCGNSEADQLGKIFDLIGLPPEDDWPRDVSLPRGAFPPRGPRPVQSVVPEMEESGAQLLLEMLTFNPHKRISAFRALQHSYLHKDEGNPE

Take `C[C@H]1CC[C@H](n2c3cnccc3c3cnc(Nc4ccc5c(n4)C(O)CN(CCO)C5)nc32)CC1` (some centres not stated): the results for the IC50 in test [1] and in test [2] were 19.2 nM and 2.9 nM, respectively.
